These are literature values, as cited in US11786452B2, “Method for dyeing keratinous material” (Henkel AG & Co. KGaA, priority 2019, dated 2023).

For the series the following is noted: 25° C.

In the case of `O=C([O-])C1=NN(c2ccc(S(=O)(=O)[O-])cc2)C(=O)C1N=Nc1ccc(S(=O)(=O)[O-])cc1.[Na+].[Na+].[Na+]` (centres unmarked) [Acid Yellow 23, trisodium salt of 4,5-dihydro-5-oxo-1-(4-sulfophenyl)-4-((4-sulfophenyl)azo)-1H-pyrazole-3-carboxylic acid], the “solubility in water” value is “highly soluble”.
For the molecule `O=C([O-])c1c(Cl)c(Cl)c(Cl)c(Cl)c1-c1c2c(Br)cc(=O)c(Br)c-2oc2c(Br)c(O)cc(Br)c12.O=C([O-])c1c(Cl)c(Cl)c(Cl)c(Cl)c1-c1c2c(Br)cc(=O)c(Br)c-2oc2c(Br)c(O)cc(Br)c12.[Na+].[Na+]` [Acid Red 92, disodium salt of 3,4,5,6-tetrachloro-2-(1,4,5,8-tetrabromo-6-hydroxy-3-oxoxanthen-9-yl)benzoic acid], the solubility in water result is “greater than 10 g/L”.
As for `CCN(Cc1cccc(S(=O)(=O)[O-])c1)c1ccc(C(=C2C=CC(=[N+](CC)Cc3cccc(S(=O)(=O)[O-])c3)C=C2)c2ccccc2S(=O)(=O)[O-])cc1.[Na+].[Na+]` [Acid Blue 9], the solubility in water entry is given as “more than 20 % by weight”.
As for `O=S(=O)([O-])c1ccc(N=Nc2c(O)ccc3ccccc23)cc1.[Na+]` [Acid Orange 7, sodium salt of 4-[(2-hydroxy-1-naphthyl)azo]benzene sulphonate], the solubility in water entry was “more than 7 g/L”.
On to `Nc1cc(S(=O)(=O)[O-])cc2cc(S(=O)(=O)[O-])c(N=Nc3ccccc3)c(O)c12.[Na+].[Na+]` [Acid Red 33, diantrium salt of 5-amino-4-hydroxy-3-(phenylazo)-naphthalene-2,7-disulphonate], for which the solubility in water was 2500 µg/mL.
